Values of other authors in patent US9314524B2, “Topical formulations of Flucytosine” (priority 2007, dated 2016).

What was measured:
[1] = test system: 227 clinical yeast isolates; settings: for cross-resistance in fluconazole/itraconazole resistant C. albicans isolates: polyene antibiotics
[2] = test system: C. glabrata; settings: 600-mg day for 2 to 3 weeks
[3] = test system: Candida parapsilosis; settings: 65 Candida parapsilosis strains
[4] = test system: Candida albicans; settings: 342 Candida albicans strains
[5] = test system: C. albicans; settings: yeasts from 104 patients with vulvovaginal candidiasis
[6] = test system: Candida glabrata; settings: 68 Candida glabrata strains
[7] = human, in vivo
[8] = test system: C. tropicalis; settings: 200-mg for 14 days, second line, 3 patients treated
[9] = test system: Candida tropicalis; settings: 70 Candida tropicalis strains

## C[C@@H]1[C@H](O)[C@@H](C)/C=C/C=C/C=C/C=C/C=C/C=C/C=C/[C@H](O[C@@H]2O[C@H](C)[C@@H](O)[C@H](N)[C@@H]2O)C[C@@H]2O[C@](O)(C[C@@H](O)C[C@@H](O)[C@H](O)CC[C@@H](O)C[C@@H](O)CC(=O)O[C@H]1C)C[C@H](O)[C@H]2C(=O)O [amphotericin B]
[1]
  cross-resistance in fluconazole/itraconazole resistant C. albicans isolates: no cross-resistance

## OB(O)O [boric acid]
[2]
  clinical and mycological success: 64%
  clinical and mycological success, symptomatic women: 47 of 73

## OC(Cn1cncn1)(Cn1cncn1)c1ccc(F)cc1F [fluconazole]
[1]; 227 vaginal clinical yeast isolates
  yeast strains resistant: thirteen
[3]
  isolates demonstrating resistance: 4.6%
[4]
  isolates showing resistance: 7.6%
[5]
  resistant C. albicans isolated, share of cases: 13.46%
[6]
  isolates demonstrating resistance: 10.3%

## Nc1nc(=O)[nH]cc1F [flucytosine, 4-amino-5-fluoropyrimidin-2(1H)-one]
[7]
  plasma level that led to bone marrow depression and hepatotoxicity: greater than 100 mg/L

## CC(=O)N1CCN(c2ccc(OCC3COC(Cn4ccnc4)(c4ccc(Cl)cc4Cl)O3)cc2)CC1 (stereo not drawn) [ketoconazole]
[8]
  patients in whom the infection recurred: three
[9]
  isolates resistant: 2.9%

## C[C@@H]1[C@H](O)[C@@H](C)/C=C/C=C/CC/C=C/C=C/C=C/C=C/C(O[C@H]2O[C@H](C)[C@@H](O)[C@H](N)[C@@H]2O)CC2O[C@](O)(CC(O)C(O)CCC(O)CC(O)CC(O)CC(=O)O[C@H]1C)CC(O)C2C(=O)O (stereo partly drawn) [nystatin]
[1]
  cross-resistance in fluconazole/itraconazole resistant C. albicans isolates: no cross-resistance
